± gives the expanded uncertainty stated by the source.
Assay: xn = mol fraction of the nth substance listed
Settings: 101.3 kPa, Liquid

CCCCO [butan-1-ol] + CCOC(=O)OCC
x2 = 0
Settings	viscosity [mPa·s]
293.15 K	2.941 ± 0.092
298.15 K	2.62 ± 0.083
303.15 K	2.255 ± 0.071
313.15 K	1.754 ± 0.056

CCC(C)O (centres undefined) [butan-2-ol] + CCOC(=O)OCC
x2 = 0
Settings	viscosity [mPa·s]
293.15 K	3.619 ± 0.23
298.15 K	3.115 ± 0.2
303.15 K	2.503 ± 0.16
313.15 K	1.784 ± 0.11

CCOC(=O)OCC [diethyl carbonate] + CC(C)O
Settings	viscosity [mPa·s]
293.15 K, x1 = 0.0502	1.973 ± 0.062
293.15 K, x1 = 0.1001	1.67 ± 0.053
293.15 K, x1 = 0.203	1.27 ± 0.041
293.15 K, x1 = 0.3012	1.073 ± 0.034
293.15 K, x1 = 0.3954	0.962 ± 0.031
293.15 K, x1 = 0.5021	0.886 ± 0.028
293.15 K, x1 = 0.6035	0.841 ± 0.027
293.15 K, x1 = 0.6976	0.811 ± 0.026
293.15 K, x1 = 0.8048	0.794 ± 0.025
293.15 K, x1 = 0.9129	0.796 ± 0.025
293.15 K, x1 = 0.9529	0.799 ± 0.025
293.15 K, x1 = 1	0.795 ± 0.025
298.15 K, x1 = 0.049	1.766 ± 0.056
298.15 K, x1 = 0.0987	1.501 ± 0.048
298.15 K, x1 = 0.1978	1.135 ± 0.036
298.15 K, x1 = 0.2945	0.94 ± 0.03
298.15 K, x1 = 0.3925	0.836 ± 0.027
298.15 K, x1 = 0.4925	0.788 ± 0.025
298.15 K, x1 = 0.5939	0.763 ± 0.024
298.15 K, x1 = 0.7004	0.74 ± 0.023
298.15 K, x1 = 0.7979	0.719 ± 0.023
298.15 K, x1 = 0.8967	0.717 ± 0.023
298.15 K, x1 = 0.9504	0.726 ± 0.023
298.15 K, x1 = 1	0.749 ± 0.024
303.15 K, x1 = 0.0522	1.468 ± 0.046
303.15 K, x1 = 0.099	1.277 ± 0.04
303.15 K, x1 = 0.1944	1.009 ± 0.032
303.15 K, x1 = 0.2913	0.864 ± 0.027
303.15 K, x1 = 0.392	0.777 ± 0.025
303.15 K, x1 = 0.4763	0.733 ± 0.023
303.15 K, x1 = 0.5883	0.702 ± 0.022
303.15 K, x1 = 0.6972	0.683 ± 0.022
303.15 K, x1 = 0.7854	0.68 ± 0.021
303.15 K, x1 = 0.889	0.684 ± 0.022
303.15 K, x1 = 0.9488	0.69 ± 0.022
303.15 K, x1 = 1	0.699 ± 0.022
313.15 K, x1 = 0.0506	1.148 ± 0.036
313.15 K, x1 = 0.0997	1.011 ± 0.032
313.15 K, x1 = 0.2016	0.821 ± 0.026
313.15 K, x1 = 0.303	0.71 ± 0.022
313.15 K, x1 = 0.4008	0.661 ± 0.021
313.15 K, x1 = 0.4969	0.634 ± 0.02
313.15 K, x1 = 0.599	0.617 ± 0.02
313.15 K, x1 = 0.7007	0.604 ± 0.019
313.15 K, x1 = 0.8011	0.594 ± 0.019
313.15 K, x1 = 0.903	0.596 ± 0.019
313.15 K, x1 = 0.9511	0.605 ± 0.019
313.15 K, x1 = 1	0.623 ± 0.02

CCOC(=O)OCC [diethyl carbonate] + CCC(C)O
Settings	viscosity [mPa·s]
293.15 K, x1 = 0.0512	2.892 ± 0.18
293.15 K, x1 = 0.1031	2.341 ± 0.15
293.15 K, x1 = 0.2021	1.652 ± 0.1
293.15 K, x1 = 0.2997	1.289 ± 0.081
293.15 K, x1 = 0.4023	1.092 ± 0.069
293.15 K, x1 = 0.5115	0.979 ± 0.062
293.15 K, x1 = 0.607	0.91 ± 0.057
293.15 K, x1 = 0.707	0.861 ± 0.054
293.15 K, x1 = 0.8038	0.825 ± 0.052
293.15 K, x1 = 0.9089	0.804 ± 0.051
293.15 K, x1 = 0.9524	0.803 ± 0.051
293.15 K, x1 = 1	0.795 ± 0.05
298.15 K, x1 = 0.0509	2.485 ± 0.16
298.15 K, x1 = 0.101	2.001 ± 0.12
298.15 K, x1 = 0.202	1.379 ± 0.086
298.15 K, x1 = 0.3002	1.071 ± 0.067
298.15 K, x1 = 0.404	0.937 ± 0.059
298.15 K, x1 = 0.5003	0.888 ± 0.056
298.15 K, x1 = 0.6008	0.858 ± 0.054
298.15 K, x1 = 0.6963	0.813 ± 0.051
298.15 K, x1 = 0.7987	0.752 ± 0.047
298.15 K, x1 = 0.8999	0.709 ± 0.045
298.15 K, x1 = 0.9466	0.712 ± 0.045
298.15 K, x1 = 1	0.749 ± 0.047
303.15 K, x1 = 0.0517	2.023 ± 0.13
303.15 K, x1 = 0.1132	1.623 ± 0.1
303.15 K, x1 = 0.2267	1.211 ± 0.076
303.15 K, x1 = 0.3316	1.021 ± 0.064
303.15 K, x1 = 0.4467	0.89 ± 0.056
303.15 K, x1 = 0.5422	0.809 ± 0.051
303.15 K, x1 = 0.6426	0.739 ± 0.047
303.15 K, x1 = 0.7416	0.698 ± 0.044
303.15 K, x1 = 0.8281	0.684 ± 0.043
303.15 K, x1 = 0.9196	0.691 ± 0.044
303.15 K, x1 = 0.9494	0.697 ± 0.044
303.15 K, x1 = 1	0.699 ± 0.044
313.15 K, x1 = 0.0511	1.503 ± 0.094
313.15 K, x1 = 0.1026	1.28 ± 0.08
313.15 K, x1 = 0.1988	0.996 ± 0.063
313.15 K, x1 = 0.2955	0.83 ± 0.052
313.15 K, x1 = 0.4041	0.738 ± 0.047
313.15 K, x1 = 0.5084	0.69 ± 0.043
313.15 K, x1 = 0.5983	0.662 ± 0.042
313.15 K, x1 = 0.6988	0.636 ± 0.04
313.15 K, x1 = 0.8034	0.61 ± 0.038
313.15 K, x1 = 0.9022	0.601 ± 0.038
313.15 K, x1 = 0.9523	0.606 ± 0.038
313.15 K, x1 = 1	0.623 ± 0.039

— the NIST ThermoML archive (doi:10.1021/je0341413)
